In patent US10323254B2, “Method for regulating plant growth” (RIKEN, priority 2015, dated 2019):

How the values were obtained:
[1] = test system: nEYFP-BSS1 and BIL1-cEYFP; experiment: BiFC analysis of the BSS1-BIL1 interaction in protoplast cells; type: cell-based, Arabidopsis; conditions: protoplasts
Description: BIL1 was fused with the binding-domain (BD) and BSS1 was fused with the prey domain (AD). Empty vector (E) was used as a control. The results are presented as the mean±s.d. from 3 independent experiments. […] FLAG-BIL1 was immunoprecipitated using an anti-FLAG antibody and immunoblotted using anti-GFP and anti-FLAG antibodies. […] The protoplast medium contained DMSO, 100 nM BL, or 3 μM Brz and cells were cultured for 12 hours. The bottom panels show protoplasts cotransfected with nYFP-BSS1 and BSS1-cEYFP (YFP: YFP fluorescence; BF: bright field; Merge: merged image of YFP and BF; arrow: nucleus; scale bar: 5 μm). […]
To analyze the direct interaction between BSS1 and BIL1 in the plant cell and to identify the localization of the possible interaction between the two proteins, a bi-molecular fluorescence complementation (BiFC) analysis was performed. […] The YFP fluorescence signal caused by the binding of nYFP-BSS1 and BIL1-cYFP was only observed in the cytosol and not in the nucleus of the Arabidopsis protoplasts (FIG. 7E). […]

BSS1-GFP = experiment: Fluorescence microscopy of punctate BSS1-GFP in transgenic seedlings; type: in vivo, Arabidopsis thaliana; conditions: for number of intense puncta per cell: 7-day-old BSS1-GFP seedlings treated 3 hours with 3 μM Brz or 100 μM BL; for single fluorescence intensity of each punctum: Brz versus BL treatment conditions, 3 hours; for onset of responsiveness of punctate BSS1-GFP: time after treatment, roots and hypocotyls
Description: FIGS. 5C to 5E show analysis of BSS1-GFP puncta signal intensities upon treatment with Brz and BL. Seven-day-old BSS1-GFP transgenic seedlings were treated for 3 hours with 3 μM Brz (Brz), an equal volume of DMSO (Mock), or 100 μM BL (BL). […] The results are represented as the mean±s.d. The signal intensity was measured using ImageJ software. […]
The plants that were transformed with the CaMV35S-BSS1-GFP construct BSS1(-GFP)-OX and the CaMV35S-BIL1-GFP construct BIL1-GFP-OX were observed via confocal laser scanning microscopy with a BX60 fluorescence microscope (Olympus) equipped with a Model CSU10 confocal scanner (Yokogawa Electric) and LSM700 (Zeiss).
FM4-64 (Molecular Probes) dissolved in water was applied to Arabidopsis plants at a final concentration of 4 μM for 3 minutes. The plants were washed with water to remove the excessive amount of the stain and observed. A DMSO-base stock solution of Brefeldin A (BFA) (Sigma) was applied to the cells at a final concentration of 50 μM for 1 hour.
The images were analyzed using ImageJ software. To measure the ratio of the nuclear and cytosolic signals of BIL1-GFP for each cell, the signal intensities in the nucleus and cytosol were calculated from the mean of the intensity in each area. The nuclear to cytosolic signal ratio was then calculated for each cell. The average nuclear/cytosolic signal ratio and standard error were calculated from measurements of at least 54 cells from each line (FIG. 9B). Line scan measurements from the vacuole to the nucleus through the cytosol were performed, and representative plot profiles of sample measurements are presented in FIG. 5C.

| Compound | localization of YFP signal (nYFP-BSS1 / BIL1-cYFP) ([1]; 100 nM BL for 12 hours) | number of intense puncta per cell (BSS1-GFP; versus mock) | single fluorescence intensity of each punctum (BSS1-GFP) | onset of responsiveness of punctate BSS1-GFP (BSS1-GFP) | punctate YFP signal (nYFP-BSS1 / BIL1-cYFP) ([1]; 3 μM Brz for 12 hours) | fluorescence intensity of the puncta per cell with respect to the whole-cell fluorescence intensity (BSS1-GFP; 7-day-old BSS1-GFP seedlings treated 3 hours with 3 μM Brz) | cytosolic fluorescence signal (BSS1-GFP; 7-day-old BSS1-GFP seedlings treated 3 hours with 3 μM Brz, versus mock) |
| --- | --- | --- | --- | --- | --- | --- | --- |
| CC(C)[C@H](C)[C@@H](O)[C@H](O)[C@@H](C)[C@H]1CC[C@H]2[C@@H]3COC(=O)[C@H]4C[C@H](O)[C@H](O)C[C@]4(C)[C@H]3CC[C@]12C [BL, brassinolide] | diffuse and spread throughout the cytosol and the nucleus | decreased | not different | 15 min |  |  |  |
| CC(O)(c1ccccc1)C(Cc1ccc(Cl)cc1)n1cncn1 (stereo not shown) [Brz, brassinazole] |  | increased | not different | 15 min | increased | increase | decreased |
